Test results taken from a melting point compilation (Tetko et al.; mined from patent text by program, amines drawn as free bases though some values may be those of a salt).
Residues, ends and D or L forms follow the SMILES beside them. *: point of attachment. Cbz = O=C(OCc1ccccc1)*

Row | melting point | SMILES
1 | 122 to 123 °C | C=CCOc1cccc2oc(C(=O)OCC)cc(=O)c12
2 | 106 to 108 °C | COc1ccc(Nc2ccccc2C(=O)N2CCCCC2)cc1
3 | 114 °C | COc1ccc(CCN(C)CCCc2ccc(NC(=O)c3cccc4c(=O)c5ccccc5[nH]c34)cc2)cc1OC
4 | 127 to 129 °C | CC(COc1ccc2c(c1)C(=O)NC(C)(C)O2)NCc1ccccc1 (stereo unspecified)
5 | 196 to 198 °C | CC(C)N1C(CN2CCOCC2)=Cc2cc(S(N)(=O)=O)sc2S1(=O)=O
6 | 83 to 85 °C | CCN(CC)c1ccc([N+](=O)[O-])cc1C#N
7 | 73 to 76 °C | CCCCCCCCCCCCCCCCCC(=O)c1ccc(C2=NC(C)(C)CO2)cc1
8 | 103 to 104 °C | CN(C)C(=O)[C@H]1C[C@H]1C(=O)N(C)C
9 | 154 to 160 °C | CC(C)CN(C=NS(=O)(=O)c1c(Cl)nc2ccc(C3CC3)nn12)CC(C)C
10 | 119 to 123 °C | CCCCCCCCCCCCCCCCCCOc1cc(C(=O)OC)cc(N(CC(=O)O)CC(=O)O)c1
11 | 137 to 139 °C | CC(=N)c1ccccc1O
12 | 103 to 104 °C | COc1cc(CC#N)c([N+](=O)[O-])cc1C(F)(F)F
13 | 277 to 279 °C | CCn1nc2c(N)nc3cnccc3c2c1CC(C)(C)O
14 | 91 to 93 °C | CCN(CC)C(=O)c1ccc2ccccc2c1-c1cccc(OC)c1
15 | 185 to 187 °C | COc1cccc2c(Nc3ccccc3C)nc(Nc3ccccc3C)nc12
16 | 159 to 160 °C | Cc1c(NC(=O)c2ccc(-c3ccccc3F)cc2F)ccc2cc(CN3CCCC3)cnc12
17 | 150 to 152 °C | O=C(O)C1(c2ccc(I)cc2)CC1
18 | 114 to 116 °C | C=CCN(c1ccccc1)c1cc(C(N)=O)c(C(=O)O)cc1N(CC=C)c1ccccc1
19 | 286 to 287 °C | COc1ccc(C(=O)Nc2ccc(C(=O)O)cc2)cc1C12CC3CC(CC(C3)C1)C2
20 | 143 to 145 °C | COCc1nc2c(NCc3c(C)cccc3C)cc(Br)cc2n1C
21 | 123 to 124 °C | Cc1ccc(S(=O)(=O)OC[C@H]2CCC[C@H](OCc3c(Cl)cccc3Cl)O2)cc1 (relative stereo)
22 | 189 to 191 °C | Cc1ccc(OC2CCN(C(=O)CNc3ccc4[nH]c(=O)sc4c3)CC2)cc1
23 | 127 °C | O=C(Sc1ccccn1)c1ccc(I)cc1
24 | 133 °C | CC1(C)CC(Nc2nccc3ccccc23)CC(C)(C)N1

Row | melting point | SMILES
25 | 117 to 122 °C | COC(=O)c1ccc(Cl)cc1C1(c2ccccc2F)OCC(CCl)O1 (stereo unspecified)
26 | 152 to 155 °C | CN(C)C(=O)C=Cc1ccc(SC2Cc3cc(O)ccc3C3CCC4(C)C(O)CCC4C23)cc1 (stereo unspecified)
27 | 71 to 73 °C | Nc1ccc(CCOCCCCCCNCC(O)c2cc(Cl)c(N)c(Cl)c2)cc1 (stereo unspecified)
28 | 218 to 220 °C | Cc1c(CC(=O)O)c2ccccc2c(=O)n1Cc1ccc(Cl)c(Cl)c1
29 | 298 to 302 °C | Cc1[nH]c(C)c(-c2ccc(Oc3ccc(OC(F)(F)F)cc3)cc2)c(=O)c1Cl
30 | 186 to 187 °C | Cc1cc(=O)c2cc(Oc3ccccc3)c(NS(C)(=O)=O)cc2o1
31 | 182 to 184 °C | O=C(O)C1Oc2cc(Cl)c(S(=O)(=O)c3ccc4c(c3)OCO4)cc2O1 (stereo unspecified)
32 | 287 to 289 °C | CCCCc1ncc(C=C2C(=O)NC(=O)N2CCCC)n1Cc1ccccc1C(=O)O
33 | 201 to 203 °C | CNc1nc(-c2ccc(-c3ccccc3)s2)c2cc(OC)c(OC)cc2n1
34 | 97 °C | COc1cc(C(C)=O)c(OC)c2c1C(C)(C)CCC2(C)C
35 | 91 to 92 °C | CCCCSc1cc(SCCCC)c2ccc3c(SCCCC)cc(SCCCC)c4ccc1c2c43
36 | 86 to 87 °C | O=C(O)[C@H](Cc1ccc(C(F)(F)F)o1)[C@@H](O)c1ccc(F)cc1 (racemic)
37 | 160 to 162 °C | CCCNC(=O)C(Cc1ccc2c(c1)c(Cc1ccc(C(=O)O)cc1OC)cn2CCC)C(C)C (stereo unspecified)
38 | 86 to 89 °C | CC(C)(C)OC(=O)CN1C(=O)[C@@H](N)CSc2ccccc21
39 | 75 to 76 °C | CCc1cc(C(C)=O)c(O)cc1OCCCCCN
40 | 92 to 93 °C | Cc1ccc(Oc2cc(-c3ccc(Br)cc3)oc2-c2ccc(Br)cc2)cc1
41 | 44 °C | CCCCCC1CCC(CCC2OCC(CCC)CO2)CC1 (stereo unspecified)
42 | 58 to 60 °C | C[Si](C)(C)CCOC(=O)CN1C(=O)[C@@H](N2C(=O)c3ccccc3C2=O)CSC1c1ccccc1 (stereo partly specified)
43 | 76.5 to 77.5 °C | Cc1cccc(C(O)c2ocnc2C)c1 (stereo unspecified)
44 | 146 to 147 °C | Cc1ccc(-n2nc(C(F)F)cc2-c2ccc(S(C)(=O)=O)c(F)c2)cc1Cl
45 | 151 to 152 °C | Cc1ccccc1CC(=NC#N)NC(NC(=O)CCCCc1ccccc1)C(C)(C)C (stereo unspecified)
46 | 52 to 54 °C | COc1ccc(-n2ccc3ccccc32)cc1
47 | 120 to 121 °C | CCOC(=O)c1cccc(-n2c(C)nc3cnccc32)c1
48 | 262 to 264 °C | CC(=C1SC(=O)NC1=O)c1ccc(OCCCOc2c(-c3ccc(F)cc3)n(C)c3ccccc3c2=O)cc1

Row | melting point | SMILES
49 | 221 to 222 °C | COc1cc(C(=O)O)ccc1CN1CCOc2ccc(NC(=O)OC3CCCC3)cc21
50 | > 250 °C | O=Cc1cccn1-c1ccc2ccc3[nH]c(=O)c(=O)[nH]c3c2c1
51 | 173 to 175 °C | CCCCc1nc2c(N)nc3ccccc3c2n1CCCCCS(C)(=O)=O
52 | 77 to 78 °C | Cc1cc2c(c(C)c1C)C(=O)C(C)(C)O2
53 | 61 to 63 °C | CCCCCCCCCCCOCc1ccc(C(=O)O)cc1OCCCCCCCCCCC
54 | 106 °C | O=C(c1ccc([N+](=O)[O-])c(O)c1)N1CCOCC1
55 | 217 to 219 °C | CCOP(=O)(NC(=O)c1[nH]c2cc(OC)c(OC)cc2c1-c1ccc(OC)c(OC)c1)OCC
56 | 143 to 145 °C | CCOC(=O)c1ccc(Cl)c(S(=O)(=O)Cl)c1
57 | 226 to 229 °C | CCn1c(C)nc2cc([N+](=O)[O-])c(Sc3cccc4cnccc34)cc21
58 | 73 to 74 °C | CC/C(=C\CCC(O)(CC)CC)c1csc(COc2ccc(CO)c(CO)c2)c1
59 | 75 to 76 °C | OC(CSc1ncccn1)CN1CCN(C(c2ccc(F)cc2)c2ccc(F)cc2)CC1 (stereo unspecified)
60 | 114 °C | Nc1ccc(S(=O)(=O)NCCc2ccccc2)cc1
61 | 97 to 100 °C | CCCN1CCC(=O)C2=C1COc1ccc(OC)cc12
62 | 149 to 150 °C | CC(=NOCCOc1ccc(C(=O)O)c(O)c1)c1ccccc1
63 | 220 to 223 °C | CS(=O)(=O)N1CCC(Nc2ncc3cc(Cc4ccccn4)c(=O)n(C4CCCC4)c3n2)CC1
64 | 160 to 162 °C | COc1nc(OC)nc(N(C)C(=O)NS(=O)(=O)c2ccccc2S(C)(=O)=O)n1
65 | 163 to 165 °C | O=C1CCC(N2C(=O)c3cccc(OCc4ccc(CN5CCN(CC(F)(F)F)CC5)cc4)c3C2=O)C(=O)N1 (stereo unspecified)
66 | 265 to 275 °C | Nc1ccnc2c(NC(=O)c3c(Cl)cccc3Cl)cccc12
67 | 158 to 160 °C | O=C(c1ccccc1)c1cn2c3ccccc3c3cccc(c1=O)c32
68 | 133 to 134 °C | O=Cc1cn(Cc2ccc(Cl)cc2)nc1CN1CCC(c2ccccc2)(c2ccccc2)CC1
69 | 280 to 281 °C | COc1nc2ccccc2nc1NC(=S)N1CCN(c2cc(F)cc(F)c2)CC1
70 | 234 to 236 °C | N#Cc1ccc2c(c1)Sc1ccc([N+](=O)[O-])cc1C=C2
71 | 114 to 117 °C | O=C(Cc1ccc(I)cc1)N1CCOCC1
72 | 97 to 99 °C | O=[N+]([O-])c1cc(Cl)ccc1N1CCc2ccccc21

Row | melting point | SMILES
73 | 232 °C | Cn1c(=O)c2c(ncn2CCN2CCC(c3c[nH]c4ccc(O)cc34)CC2)n(C)c1=O
74 | 73 to 75 °C | CCCCCCCCCCCCN(N)C(=O)NC
75 | 80.6 °C | C=CC(=O)NC(C)(C)CS(=O)(=O)OC
76 | 203 to 205 °C | C[C@H](NC(=O)[C@H](C)NC(=O)OCc1ccccc1)C(=O)O (Cbz-Ala-Ala-OH)
77 | 149 to 151 °C | CCC(=O)N[C@H]1CCc2c(ccc(OC)c2OC)C1
78 | 196 to 197 °C | Clc1ccc(Nc2nnc(Cc3ccncc3)c3cccnc23)cc1
79 | 121 to 122 °C | O=C1CCCc2nc(C#Cc3ccccc3)ccc21
80 | 225 °C | C=C1C(=N)NC(=O)N1Cc1ccccc1
81 | 212 to 213 °C | O=C(c1ccccc1)N1CCC2OC2C1 (stereo unspecified)
82 | 45 to 46 °C | COc1cc(C)c(CCCCCCCCCCCCCCCC(=O)O)c(O)c1OC
83 | 72 to 73 °C | O=C(O)CCCCCOc1cccc(OCc2ccccc2)c1
84 | 202 °C | O=[N+]([O-])C=C1NCCCN1c1ccc(Cl)nc1
85 | 125 to 127 °C | O=C1NC(C(=O)NCCO[N+](=O)[O-])C(c2ccc(Cl)cc2)S1 (stereo unspecified)
86 | > 300 °C | O=c1c2ccc(O)cc2oc2oc3cc(O)ccc3c12
87 | 284 to 286 °C | O=C1Nc2ccccc2S(=O)(=O)c2ccccc21
88 | 227 °C | Cc1n[nH]c(C)c1-c1cncc(OC2SCC(O)C(O)C2O)c1 (stereo unspecified)
89 | 151 to 152 °C | CCc1cc(C(=O)c2ccccc2Cl)c(-n2c(C)nnc2CNC(=O)c2ccc(Cl)c(Cl)c2)s1
90 | 51 to 54 °C | COc1cccc(C(=O)Cl)c1OC(C)=O
91 | 85 °C | CCOC(=O)N1CCC(c2cc3cc(OC)cc(Br)c3o2)CC1
92 | 102 °C | Oc1cccc(SCCCSc2ccc(Cl)cc2)c1
93 | 280 to 282 °C | C=Cn1cc(C(=O)OCC)c(=O)c2cc(F)c(N3CCC(NC(=O)C(F)(F)F)C3)nc21 (stereo unspecified)
94 | 46.5 to 49 °C | OCc1ccc(Cl)cc1Cc1ccccc1

Row | SMILES | melting point
95 | CCC1N=C(c2ccccc2F)c2c(ccc(N=C=O)c2Cl)N(C)C1=O (stereo unspecified) | 243 to 244 °C
96 | COC(=O)C12CCc3cc(Cl)ccc3C1=NN(C(=O)Nc1ccc(C(F)(F)F)cc1)C2 (stereo unspecified) | 234 to 236 °C
97 | Fc1ccc(-c2coc(-c3cn([C@H]4CN5CCC4CC5)nn3)c2)cn1 | 210 °C
98 | Cc1cc(NC(=O)C(C)(O)COc2ccc(CCCCl)cc2)ccc1[N+](=O)[O-] (stereo unspecified) | 110 to 112 °C
99 | CC(C)NC(=O)c1ccc(N2CCC(N3C(=O)OCc4ccccc43)CC2)nn1 | 120 °C
100 | CC(C)=C1CC(=O)N(c2cc(F)c(C#N)cc2F)C1=O | 135 °C
101 | Cc1nc2ccc3c(c2o1)OC(CN1CCC2(CC1)C(=O)NCN2c1ccccc1)CO3 (stereo unspecified) | 240 °C
